Data published in PubChem BioAssay (NCI).
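Briefly, cells in 96-well plates were exposed to five compound concentrations for 48 h, and endpoints were estimated by linear interpolation. Here, GI50 denotes the concentration required for 50% inhibition of growth. TGI is the concentration that stops growth completely.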

Assays:
Assay in all cases: growth of human tumour cells (NCI), 48 h
786-0 renal = system: 786-0 renal
A498 renal = system: A498 renal
A549 NSCLC = system: A549 NSCLC
ACHN renal = system: ACHN renal
BT-549 breast = system: BT-549 breast
CAKI-1 renal = system: CAKI-1 renal
CCRF-CEM leukemia = system: CCRF-CEM leukemia
COLO 205 colon = system: COLO 205 colon
DU-145 prostate = system: DU-145 prostate
EKVX NSCLC = system: EKVX NSCLC
HCC-2998 colon = system: HCC-2998 colon
HCT-116 colon = system: HCT-116 colon
HCT-15 colon = system: HCT-15 colon
HL-60(TB) leukemia = system: HL-60(TB) leukemia
HOP-62 NSCLC = system: HOP-62 NSCLC
HOP-92 NSCLC = system: HOP-92 NSCLC
HS 578T breast = system: HS 578T breast
HT29 colon = system: HT29 colon
K-562 leukemia = system: K-562 leukemia
KM12 colon = system: KM12 colon
LOX IMVI melanoma = system: LOX IMVI melanoma
M14 melanoma = system: M14 melanoma
MCF7 breast = system: MCF7 breast
MDA-MB-231 breast = system: MDA-MB-231 breast
MDA-MB-435 = system: MDA-MB-435
MOLT-4 leukemia = system: MOLT-4 leukemia
NCI-H226 lung = system: NCI-H226 lung
NCI-H23 lung = system: NCI-H23 lung
NCI-H460 lung = system: NCI-H460 lung
NCI-H522 lung = system: NCI-H522 lung
NCI/ADR-RES ovarian = system: NCI/ADR-RES ovarian
OVCAR-3 ovarian = system: OVCAR-3 ovarian
OVCAR-4 ovarian = system: OVCAR-4 ovarian
OVCAR-5 ovarian = system: OVCAR-5 ovarian
OVCAR-8 ovarian = system: OVCAR-8 ovarian
PC-3 prostate = system: PC-3 prostate
RPMI-8226 leukemia = system: RPMI-8226 leukemia
RXF 393 renal = system: RXF 393 renal
SF-268 CNS = system: SF-268 CNS
SF-295 CNS = system: SF-295 CNS
SF-539 CNS = system: SF-539 CNS
SK-MEL-2 melanoma = system: SK-MEL-2 melanoma
SK-MEL-28 melanoma = system: SK-MEL-28 melanoma
SK-MEL-5 melanoma = system: SK-MEL-5 melanoma
SK-OV-3 ovarian = system: SK-OV-3 ovarian
SN12C renal = system: SN12C renal
SNB-19 CNS = system: SNB-19 CNS
SNB-75 CNS = system: SNB-75 CNS
SR leukemia = system: SR leukemia
SW-620 colon = system: SW-620 colon
T-47D breast = system: T-47D breast
TK-10 renal = system: TK-10 renal
U251 CNS = system: U251 CNS
UACC-257 melanoma = system: UACC-257 melanoma
UACC-62 melanoma = system: UACC-62 melanoma
IGROV1 ovarian = system: IGROV1 ovarian
MALME-3M melanoma = system: MALME-3M melanoma
UO-31 renal = system: UO-31 renal

## C(=C1c2ccccc2-c2ccccc21)c1ccncc1
786-0 renal
  GI50: 8.17 µM
  TGI: 22.7 µM
A498 renal
  GI50: 2.25 µM
  TGI: 10.7 µM
A549 NSCLC
  GI50: 4.65 µM
  TGI: 19.3 µM
ACHN renal
  GI50: 10.6 µM
  TGI: 28 µM
BT-549 breast
  GI50: 10 µM
  TGI: 22.4 µM
CAKI-1 renal
  GI50: 2.64 µM
  TGI: 10.9 µM
CCRF-CEM leukemia
  GI50: 5.36 µM
  TGI: 72.9 µM
COLO 205 colon
  GI50: 5.32 µM
  TGI: 18.3 µM
DU-145 prostate
  GI50: 8.28 µM
  TGI: 20.9 µM
EKVX NSCLC
  GI50: 3.48 µM
  TGI: 15.4 µM
HCC-2998 colon
  GI50: 11.3 µM
  TGI: 24.5 µM
HCT-116 colon
  GI50: 3.84 µM
  TGI: 14.3 µM
HCT-15 colon
  GI50: 4.51 µM
  TGI: 18.9 µM
HL-60(TB) leukemia
  GI50: 4.33 µM
  TGI: 22.2 µM
HOP-62 NSCLC
  GI50: 5.35 µM
  TGI: 24.3 µM
HOP-92 NSCLC
  GI50: 11.2 µM
  TGI: 25.4 µM
HS 578T breast
  GI50: 3.77 µM
  TGI: 14.1 µM
HT29 colon
  GI50: 4.06 µM
  TGI: 13.9 µM
K-562 leukemia
  GI50: 4.35 µM
  TGI: > 100 µM
KM12 colon
  GI50: 3.24 µM
  TGI: 11.9 µM
LOX IMVI melanoma
  GI50: 5.19 µM
  TGI: 18.9 µM
M14 melanoma
  GI50: 4.39 µM
  TGI: 15.7 µM
MCF7 breast
  GI50: 3.92 µM
  TGI: 14.6 µM
MDA-MB-231 breast
  GI50: 6.75 µM
  TGI: 23.1 µM
MDA-MB-435
  GI50: 1.81 µM
  TGI: 4.85 µM
MOLT-4 leukemia
  GI50: 5.04 µM
  TGI: 35 µM
NCI-H226 lung
  GI50: 11.6 µM
  TGI: 31.7 µM
NCI-H23 lung
  GI50: 9.94 µM
  TGI: 26.6 µM
NCI-H460 lung
  GI50: 3.87 µM
  TGI: 13.7 µM
NCI-H522 lung
  GI50: 5.78 µM
  TGI: 20.4 µM
NCI/ADR-RES ovarian
  GI50: 3.88 µM
  TGI: 16.2 µM
OVCAR-3 ovarian
  GI50: 2.5 µM
  TGI: 6.75 µM
OVCAR-4 ovarian
  GI50: 12.1 µM
  TGI: 25.6 µM
OVCAR-5 ovarian
  GI50: 13.8 µM
  TGI: 33.2 µM
OVCAR-8 ovarian
  GI50: 7.99 µM
  TGI: 24.9 µM
PC-3 prostate
  GI50: 13.4 µM
  TGI: > 100 µM
RPMI-8226 leukemia
  GI50: 7.65 µM
  TGI: 63.4 µM
RXF 393 renal
  GI50: 5.69 µM
  TGI: 21.7 µM
SF-268 CNS
  GI50: 6.39 µM
  TGI: 19.8 µM
SF-295 CNS
  GI50: 1.98 µM
  TGI: 5.28 µM
SF-539 CNS
  GI50: 5.62 µM
  TGI: 19.4 µM
SK-MEL-2 melanoma
  GI50: 10.6 µM
  TGI: 26.4 µM
SK-MEL-28 melanoma
  GI50: 10.6 µM
  TGI: 24.2 µM
SK-MEL-5 melanoma
  GI50: 4.64 µM
  TGI: 16.7 µM
SK-OV-3 ovarian
  GI50: 6.76 µM
  TGI: 24.5 µM
SN12C renal
  GI50: 7.45 µM
  TGI: 21.6 µM
SNB-19 CNS
  GI50: 5.81 µM
  TGI: 19.5 µM
SNB-75 CNS
  GI50: 6.5 µM
  TGI: 24.6 µM
SR leukemia
  GI50: 3.34 µM
  TGI: 50.1 µM
SW-620 colon
  GI50: 4.22 µM
  TGI: 17.1 µM
T-47D breast
  GI50: 6.04 µM
  TGI: 42.5 µM
TK-10 renal
  GI50: 13 µM
  TGI: 26.9 µM
U251 CNS
  GI50: 3.78 µM
  TGI: 16 µM
UACC-257 melanoma
  GI50: 11.6 µM
  TGI: 26.7 µM
UACC-62 melanoma
  GI50: 5.14 µM
  TGI: 18.6 µM

## CC(C)=CC(=O)OC1C(CO)OC(Oc2cc(O)c3c(=O)cc(-c4ccc(O)c(O)c4)oc3c2)C(OC2OC(C)C(O)C(O)C2O)C1O (configuration not stated)
786-0 renal
  GI50: > 100 µM
  TGI: > 100 µM
A498 renal
  GI50: > 100 µM
  TGI: > 100 µM
A549 NSCLC
  GI50: > 100 µM
  TGI: > 100 µM
ACHN renal
  GI50: > 100 µM
  TGI: > 100 µM
BT-549 breast
  GI50: > 100 µM
  TGI: > 100 µM
CAKI-1 renal
  GI50: > 100 µM
  TGI: > 100 µM
CCRF-CEM leukemia
  GI50: > 100 µM
  TGI: > 100 µM
COLO 205 colon
  GI50: > 100 µM
  TGI: > 100 µM
DU-145 prostate
  GI50: > 100 µM
  TGI: > 100 µM
HCC-2998 colon
  GI50: > 100 µM
  TGI: > 100 µM
HCT-116 colon
  GI50: > 100 µM
  TGI: > 100 µM
HCT-15 colon
  GI50: > 100 µM
  TGI: > 100 µM
HL-60(TB) leukemia
  GI50: > 100 µM
  TGI: > 100 µM
HOP-62 NSCLC
  GI50: > 100 µM
  TGI: > 100 µM
HS 578T breast
  GI50: > 100 µM
  TGI: > 100 µM
HT29 colon
  GI50: > 100 µM
  TGI: > 100 µM
IGROV1 ovarian
  GI50: > 100 µM
  TGI: > 100 µM
K-562 leukemia
  GI50: > 100 µM
  TGI: > 100 µM
KM12 colon
  GI50: > 100 µM
  TGI: > 100 µM
LOX IMVI melanoma
  GI50: > 100 µM
  TGI: > 100 µM
M14 melanoma
  GI50: > 100 µM
  TGI: > 100 µM
MALME-3M melanoma
  GI50: > 100 µM
  TGI: > 100 µM
MCF7 breast
  GI50: > 100 µM
  TGI: > 100 µM
MDA-MB-231 breast
  GI50: > 100 µM
  TGI: > 100 µM
MDA-MB-435
  GI50: > 100 µM
  TGI: > 100 µM
MOLT-4 leukemia
  GI50: > 100 µM
  TGI: > 100 µM
NCI-H226 lung
  GI50: > 100 µM
  TGI: > 100 µM
NCI-H23 lung
  GI50: > 100 µM
  TGI: > 100 µM
NCI-H460 lung
  GI50: > 100 µM
  TGI: > 100 µM
NCI-H522 lung
  GI50: > 100 µM
  TGI: > 100 µM
NCI/ADR-RES ovarian
  GI50: > 100 µM
  TGI: > 100 µM
OVCAR-3 ovarian
  GI50: > 100 µM
  TGI: > 100 µM
OVCAR-4 ovarian
  GI50: > 100 µM
  TGI: > 100 µM
OVCAR-5 ovarian
  GI50: > 100 µM
  TGI: > 100 µM
OVCAR-8 ovarian
  GI50: > 100 µM
  TGI: > 100 µM
PC-3 prostate
  GI50: > 100 µM
  TGI: > 100 µM
RPMI-8226 leukemia
  GI50: 85.6 µM
  TGI: > 100 µM
RXF 393 renal
  GI50: > 100 µM
  TGI: > 100 µM
SF-268 CNS
  GI50: > 100 µM
  TGI: > 100 µM
SF-295 CNS
  GI50: > 100 µM
  TGI: > 100 µM
SF-539 CNS
  GI50: > 100 µM
  TGI: > 100 µM
SK-MEL-2 melanoma
  GI50: > 100 µM
  TGI: > 100 µM
SK-MEL-28 melanoma
  GI50: > 100 µM
  TGI: > 100 µM
SK-MEL-5 melanoma
  GI50: > 100 µM
  TGI: > 100 µM
SK-OV-3 ovarian
  GI50: > 100 µM
  TGI: > 100 µM
SN12C renal
  GI50: > 100 µM
  TGI: > 100 µM
SNB-19 CNS
  GI50: > 100 µM
  TGI: > 100 µM
SNB-75 CNS
  GI50: > 100 µM
  TGI: > 100 µM
SR leukemia
  GI50: 50 µM
  TGI: 98.8 µM
SW-620 colon
  GI50: > 100 µM
  TGI: > 100 µM
T-47D breast
  GI50: > 100 µM
  TGI: > 100 µM
TK-10 renal
  GI50: > 100 µM
  TGI: > 100 µM
U251 CNS
  GI50: > 100 µM
  TGI: > 100 µM
UACC-257 melanoma
  GI50: > 100 µM
  TGI: > 100 µM
UACC-62 melanoma
  GI50: > 100 µM
  TGI: > 100 µM
UO-31 renal
  GI50: > 100 µM
  TGI: > 100 µM
